Data as given in US7396837B2, “Antitumoral analogs of lamellarins” (Pharma Mar, S.A.U., priority 2002, dated 2008).

Assays:
Format in all cases: cell-based
IGROV-ET = experiment: SRB colorimetric cell growth inhibition assay, IGROV-ET (ET-743 resistant); conditions: IGROV-ET
How it was run: (§1)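 Quantitation uses the sulforhodamine B reaction on cells exposed to sample for the whole assay period; results (mean ± SD, n = 3 wells) yield GI, TGI and LC.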

SK-MEL-28 = experiment: SRB colorimetric cell growth inhibition assay, SK-MEL-28
How it was run: as §1

SKOV-3 = experiment: SRB colorimetric cell growth inhibition assay, SKOV-3; conditions: Homo sapiens
How it was run: (§2)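 Growth inhibition (GI), total growth inhibition (TGI, cytostatic) and lethal concentration (LC, cytotoxic) come from an SRB-based colorimetric measure of growth and viability. Data are triplicate-well means ± SD.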

SK-BR-3 = experiment: SRB colorimetric cell growth inhibition assay, SK-BR-3
How it was run: as §1

H-MEC-1 = experiment: SRB colorimetric cell growth inhibition assay, H-MEC-1; conditions: Homo sapiens, HMEC-1, H-MEC-1
How it was run: as §2

[1] = as above; conditions: human, H-MEC-1 cells; H-MEC-1; cell killing (cytotoxic effect); read-out: LC50 H-MEC-1
How it was run: as §2

PANC-1 = experiment: SRB colorimetric cell growth inhibition assay, PANC-1
How it was run: as §1

LoVo = experiment: SRB colorimetric cell growth inhibition assay, LoVo
How it was run: as §1

K-562 = experiment: SRB colorimetric cell growth inhibition assay, K-562
How it was run: as §1

IGROV = experiment: SRB colorimetric cell growth inhibition assay, IGROV; conditions: IGROV
How it was run: as §1

A-549 = experiment: SRB colorimetric cell growth inhibition assay, A-549
How it was run: as §1

LoVo-Dox = experiment: SRB colorimetric cell growth inhibition assay, LoVo-Dox (MDR); conditions: LOVO-DOX
How it was run: as §1

HT-29 = experiment: SRB colorimetric cell growth inhibition assay, HT-29
How it was run: as §1

DU-145 = experiment: SRB colorimetric cell growth inhibition assay, DU-145; conditions: DU-145
How it was run: as §1

LNCaP = experiment: SRB colorimetric cell growth inhibition assay, LNCaP; conditions: LN-caP
How it was run: as §1

[2] = total growth inhibition (cytostatic effect)

Question: With COc1cc(-c2c3c4cc(OC)c(OC(=O)[C@@H](N)Cc5ccccc5)cc4oc(=O)c3n3ccc4c(OC(=O)[C@@H](N)Cc5ccccc5)c(OC)c(OC)cc4c23)ccc1OC(=O)[C@@H](N)Cc1ccccc1 [Compound 31] as the compound, how does the GI50 (IGROV-ET; GI=growth inhibition, read-out: GI50 IGROV-ET) read?
Answer: 1.39 µM

Question: And the CC50 (IGROV-ET; cell killing (cytotoxic effect), read-out: LC50 IGROV-ET)?
Answer: 7.62 µM

Question: What about the “TGI IGROV-ET” value (IGROV-ET; [2]) of the same compound?
Answer: 4.00E−06 Molar

Question: And the CC50 (SK-MEL-28; Homo sapiens, SK-MEL-28, MEL-28, cell killing (cytotoxic effect), read-out: LC50 MEL-28)?
Answer: 7.62 µM

Question: And the GI50 (SK-MEL-28; MEL-28, GI=growth inhibition, read-out: GI50 MEL-28)?
Answer: 0.482 µM

Question: What about the “TGI MEL-28” value (SK-MEL-28; MEL-28, total growth inhibition (cytostatic effect)) of the same compound?
Answer: 7.62E−06 Molar

Question: What about the GI50 (SKOV-3; SK-OV-3, SKOV-3, GI=growth inhibition, read-out: GI50 SKOV-3) of the same compound?
Answer: 0.524 µM

Question: What about the LC50 (concentration causing 50% net cell killing) (SKOV-3; SK-OV-3, SKOV-3, cell killing (cytotoxic effect), read-out: LC50 SKOV-3) of the same compound?
Answer: 7.62 µM

Question: What about the IC (TGI) (SKOV-3; SK-OV-3, SKOV-3, total growth inhibition (cytostatic effect), read-out: TGI SKOV-3) of the same compound?
Answer: 4.22 µM

Question: What about the CC50 (SK-BR-3; Homo sapiens, SK-BR-3, SK-BR-3, cell killing (cytotoxic effect), read-out: LC50 SK-BR-3) of the same compound?
Answer: 7.62 µM

Question: And the GI50 (SK-BR-3; SK-BR-3, GI=growth inhibition, read-out: GI50 SK-BR-3)?
Answer: 1.8 µM

Question: What about the “TGI SK-BR-3” value (SK-BR-3; SK-BR-3, total growth inhibition (cytostatic effect)) of the same compound?
Answer: 7.62E−06 Molar

Question: And the GI50 (H-MEC-1; GI=growth inhibition, read-out: GI50 H-MEC-1)?
Answer: 0.119 µM

Question: What about the IC (TGI) (H-MEC-1; total growth inhibition (cytostatic effect), read-out: TGI H-MEC-1) of the same compound?
Answer: 0.26 µM

Question: And the LC50 (concentration giving 50% net cell killing) [1]?
Answer: 0.565 µM

Question: What about the CC50 (PANC-1; Homo sapiens, PANC-1, PANC-1, LC=cell killing (cytotoxic effect), read-out: LC50 PANC-1) of the same compound?
Answer: 7.62 µM

Question: And the IC (TGI) (PANC-1; Homo sapiens, PANC-1, PANC-1, TGI=total growth inhibition (cytostatic effect), read-out: TGI PANC-1)?
Answer: 7.62 µM

Question: What about the GI50 (PANC-1; PANC-1, GI=growth inhibition, read-out: GI50 PANC-1) of the same compound?
Answer: 1.96 µM

Question: What about the CC50 (LoVo; Homo sapiens, LoVo, LC=cell killing (cytotoxic effect), read-out: LC50 LOVO) of the same compound?
Answer: 7.62 µM

Question: What about the IC (TGI) (LoVo; Homo sapiens, LoVo, TGI=total growth inhibition (cytostatic effect), read-out: TGI LOVO) of the same compound?
Answer: 5.35 µM

Question: And the GI50 (LoVo; LOVO, GI=growth inhibition, read-out: GI50 LOVO)?
Answer: 1.98 µM

Question: What about the CC50 (K-562; Homo sapiens, K562, K-562, LC=cell killing (cytotoxic effect), read-out: LC50 K-562) of the same compound?
Answer: 7.62 µM

Question: And the IC (TGI) (K-562; Homo sapiens, K562, K-562, TGI=total growth inhibition (cytostatic effect), read-out: TGI K-562)?
Answer: 2.47 µM

Question: What about the GI50 (K-562; K-562, GI=growth inhibition, read-out: GI50 K-562) of the same compound?
Answer: 0.41 µM

Question: And the GI50 (IGROV; GI=growth inhibition, read-out: GI50 IGROV)?
Answer: 1.26 µM

Question: What about the CC50 (IGROV; cell killing (cytotoxic effect), read-out: LC50 IGROV) of the same compound?
Answer: 7.62 µM

Question: And the “TGI IGROV” value (IGROV; [2])?
Answer: 7.62E−06 Molar

Question: What about the GI50 (A-549; A-549, GI=growth inhibition, read-out: GI50 A-549) of the same compound?
Answer: 0.433 µM

Question: What about the CC50 (A-549; Homo sapiens, A549, A-549, LC=cell killing (cytotoxic effect), read-out: LC50 A-549) of the same compound?
Answer: 4.6 µM

Question: And the IC (TGI) (A-549; Homo sapiens, A549, A-549, TGI=total growth inhibition (cytostatic effect), read-out: TGI A-549)?
Answer: 1.42 µM

Question: And the CC50 (LoVo-Dox; Homo sapiens, LC=cell killing (cytotoxic effect), read-out: LC50 LOVO-DOX)?
Answer: 7.62 µM

Question: What about the IC (TGI) (LoVo-Dox; Homo sapiens, TGI=total growth inhibition (cytostatic effect), read-out: TGI LOVO-DOX) of the same compound?
Answer: 7.62 µM

Question: And the GI50 (LoVo-Dox; GI=growth inhibition, read-out: GI50 LOVO-DOX)?
Answer: 1.49 µM

Question: What about the GI50 (HT-29; HT-29, GI=growth inhibition, read-out: GI50 HT-29) of the same compound?
Answer: 7.62 µM

Question: What about the CC50 (HT-29; Homo sapiens, HT-29, HT-29, LC=cell killing (cytotoxic effect), read-out: LC50 HT-29) of the same compound?
Answer: 7.62 µM

Question: What about the IC (TGI) (HT-29; Homo sapiens, HT-29, HT-29, TGI=total growth inhibition (cytostatic effect), read-out: TGI HT-29) of the same compound?
Answer: 7.62 µM

Question: And the GI50 (DU-145; GI=growth inhibition, read-out: GI50 DU-145)?
Answer: 0.301 µM

Question: What about the CC50 (DU-145; cell killing (cytotoxic effect), read-out: LC50 DU-145) of the same compound?
Answer: 7.62 µM

Question: And the “TGI DU-145” value (DU-145; [2])?
Answer: 8.61E−07 Molar

Question: And the CC50 (LNCaP; Homo sapiens, LNCaP, cell killing (cytotoxic effect), read-out: LC50 LN-caP)?
Answer: 3.43 µM

Question: What about the IC (TGI) (LNCaP; Homo sapiens, LNCaP, total growth inhibition (cytostatic effect), read-out: TGI LN-caP) of the same compound?
Answer: 1.45 µM

Question: What about the GI50 (LNCaP; GI=growth inhibition, read-out: GI50 LN-caP) of the same compound?
Answer: 0.548 µM
